Tests used:
HEK293 = experiment: Cytotoxicity against HEK293 cells up to 10 uM after 48 hrs by MTT assay; format: cell-based; settings: human, hek293, 48 h
HepG2 = experiment: Growth inhibition of human HepG2 cells after 48 hrs by MTT assay; format: functional, cell-based; settings: HepG2, 48 h
DU-145 = experiment: Growth inhibition of human DU145 cells after 48 hrs by MTT assay; format: functional, cell-based; settings: DU-145, 48 h
A549 = experiment: Growth inhibition of human A549 cells after 48 hrs by MTT assay; format: functional, cell-based; settings: A549, 48 h
[1] = target: Prostaglandin G/H synthase 2 (Homo sapiens) (UniProt P35354); experiment: Inhibition of human COX2 expressed in baculovirus infected sf9 microsomes at 10 uM using arachidonic acid as substrate preincubated for 15 mins followed by substrate addition by TMPD oxidation based assay relative to control
HeLa = experiment: Growth inhibition of human HeLa cells after 48 hrs by MTT assay; format: functional, cell-based
[2] = target: 3',5'-cyclic-AMP phosphodiesterase 4B (Homo sapiens) (UniProt Q07343); experiment: Inhibition of recombinant His-tagged PDE4B1 (unknown origin) expressed in baculovirus infected sf9 cells at 10 uM using cAMP as substrate preincubated for 15 mins followed by cAMP addition measured after 1 hr by PDE light HTS assay relative to control
Chain of 3',5'-cyclic-AMP phosphodiesterase 4B (Homo sapiens) (Q07343 whole entry): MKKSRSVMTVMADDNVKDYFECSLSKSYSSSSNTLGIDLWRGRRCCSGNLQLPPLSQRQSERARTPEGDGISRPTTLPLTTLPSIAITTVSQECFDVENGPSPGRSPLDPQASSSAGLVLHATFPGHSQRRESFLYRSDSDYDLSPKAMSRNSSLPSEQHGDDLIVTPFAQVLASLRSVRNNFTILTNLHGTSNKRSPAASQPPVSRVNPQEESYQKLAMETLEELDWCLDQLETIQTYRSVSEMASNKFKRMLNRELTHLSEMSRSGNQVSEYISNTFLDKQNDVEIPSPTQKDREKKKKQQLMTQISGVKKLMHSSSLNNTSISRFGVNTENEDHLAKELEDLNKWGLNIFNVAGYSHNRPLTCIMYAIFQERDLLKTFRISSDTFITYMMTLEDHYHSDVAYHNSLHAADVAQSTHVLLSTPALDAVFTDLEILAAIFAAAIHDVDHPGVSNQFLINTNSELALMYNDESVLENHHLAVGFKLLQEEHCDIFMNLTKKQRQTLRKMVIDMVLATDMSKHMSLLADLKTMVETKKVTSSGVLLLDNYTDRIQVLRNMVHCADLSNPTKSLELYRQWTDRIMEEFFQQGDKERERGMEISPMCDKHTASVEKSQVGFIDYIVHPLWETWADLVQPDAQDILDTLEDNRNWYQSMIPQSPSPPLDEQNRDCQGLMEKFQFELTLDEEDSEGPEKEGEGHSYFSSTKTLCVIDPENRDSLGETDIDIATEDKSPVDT

Chain of Prostaglandin G/H synthase 2 (Homo sapiens) (P35354 whole entry, looked up): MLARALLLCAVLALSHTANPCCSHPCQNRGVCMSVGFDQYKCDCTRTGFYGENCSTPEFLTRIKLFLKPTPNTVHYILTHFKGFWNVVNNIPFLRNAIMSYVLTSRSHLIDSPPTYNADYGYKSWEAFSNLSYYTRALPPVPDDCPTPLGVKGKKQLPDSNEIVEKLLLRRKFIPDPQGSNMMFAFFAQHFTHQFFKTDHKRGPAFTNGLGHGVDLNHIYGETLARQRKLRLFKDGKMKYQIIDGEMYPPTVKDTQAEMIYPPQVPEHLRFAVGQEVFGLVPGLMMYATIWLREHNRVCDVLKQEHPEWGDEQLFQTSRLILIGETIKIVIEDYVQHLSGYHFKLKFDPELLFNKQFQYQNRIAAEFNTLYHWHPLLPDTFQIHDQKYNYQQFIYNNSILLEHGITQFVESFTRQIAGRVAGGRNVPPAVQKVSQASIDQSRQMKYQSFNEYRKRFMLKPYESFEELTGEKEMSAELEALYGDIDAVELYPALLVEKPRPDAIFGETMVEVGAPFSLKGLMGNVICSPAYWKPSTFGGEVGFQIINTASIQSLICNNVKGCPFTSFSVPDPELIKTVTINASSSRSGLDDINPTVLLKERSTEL

IC50 (HepG2) [µM] | IC50 (DU-145) [µM] | IC50 (A549) [µM] | inhibition [1] [%] | IC50 (HeLa) [µM] | inhibition [2] [%] | Structure (SMILES) | Activity (HEK293)
18.3 | 11.2 | – | – | – | – | Cc1ccc(-c2cn(-c3ccc(NS(C)(=O)=O)c(Oc4ccccc4)c3)nn2)cc1 | Non-Toxic
7.5 | 6.4 | 7.1 | 23 | 7.8 | 62.8 | CS(=O)(=O)Nc1ccc(-n2cc(COc3ccc(Cl)cc3)nn2)cc1Oc1ccccc1 | Non-Toxic
9.8 | 5.9 | 6.7 | – | 7.9 | 67.5 | Cc1cc(OCc2cn(-c3ccc(NS(C)(=O)=O)c(Oc4ccccc4)c3)nn2)ccc1Cl | Non-Toxic
13 | 8.2 | 8 | – | 15.8 | – | Cc1ccc(OCc2cn(-c3ccc(NS(C)(=O)=O)c(Oc4ccccc4)c3)nn2)cc1 | Non-Toxic
35.2 | – | 67.8 | – | – | 52 | CS(=O)(=O)Nc1ccc([N+](=O)[O-])cc1Oc1ccccc1 [NIMESULIDE] | –
25.3 | 21.1 | 53.8 | – | 38.6 | – | CS(=O)(=O)Nc1ccc(-n2cc(COc3ccccc3Cl)nn2)cc1Oc1ccccc1 | Non-Toxic
– | 7.2 | 6.6 | – | – | 70.2 | CS(=O)(=O)Nc1ccc(-n2cc(COc3ccc([N+](=O)[O-])cc3)nn2)cc1Oc1ccccc1 | Non-Toxic
13.6 | 14.2 | 29.9 | – | 21.9 | – | CS(=O)(=O)Nc1ccc(-n2cc(-c3ccccc3)nn2)cc1Oc1ccccc1 | Non-Toxic
19.5 | 9.1 | 8.3 | – | 12.8 | – | CS(=O)(=O)Nc1ccc(-n2cc(COc3ccc4ccccc4c3)nn2)cc1Oc1ccccc1 | Non-Toxic

Reference: ChEMBL document CHEMBL4041539, “1,2,3-Triazole-nimesulide hybrid: Their design, synthesis and evaluation as potential anticancer agents” (Bioorg Med Chem Lett, 2017)
